# Reference: patent US7846697B2, “Method of producing a low molecular weight organic compound in a cell” (BLMaps, priority 2003, dated 2010)
# What was measured:
# E. coli strain JM109 = experiment: Vanillin sensitivity (STV) on solid LB growth medium; assay type: cell-based; settings: no growth at 1/10000 dilution, growth at 1/100 severely inhibited, 24 hours
# Experimental: (§1) The three different E. coli strains TOP10, JM109, and KO1418 were grown for 18 hours in the appropriate media, after which serial dilutions in growth medium (dilution factors 1, 1/100, 1/10000 and 1/1000000) were made. Droplets of these cell suspensions were applied to Petri dishes containing solid LB growth medium with various concentrations of vanillin, and the plates were incubated at the appropriate growth temperature for 24 hours (E. coli), after which they were photographed. […] This number constituted the STV (Sensitivity To Vanillin) level. The STV numbers for the different microorganisms studied can be seen in Table 9.1.
# E. coli strain KO1418 = experiment: as above; assay type: cell-based; settings: no growth at 1/10000 dilution, growth at 1/100 severely inhibited, 24 hours
# Experimental: as §1
# E. coli strain TOP10 = experiment: as above; assay type: cell-based; settings: no growth at 1/10000 dilution, growth at 1/100 severely inhibited, 24 hours
# Experimental: as §1
# [1] = tested on: E. coli strain JM109 transformants; experiment: Toxicity of vanillin with IPTG-induced expression of UGT85B1 or AS, growth on plates; assay type: cell-based; also: key: −: No growth; +: weak growth; ++: good growth
# Experimental: (§2) The E. coli strains TOP10, JM109, and KO1418 were all transformed with the constructed plasmids pJH401, pJH402, pJH411 and pJH412, and pKK223-3 as control, employing standard transformation protocols. Transformants were selected for ampicilin resistance, and two transformants of each E. coli strain with each plasmid were kept for expression experiments. The E. coli transformants were inoculated from plate cultures into 2 ml liquid growth medium (LB medium containing ampicilin at 100 μg/ml), and allowed to grow for 20 hours at 37° C. The precultures were diluted 100 times 10^4 times and 10^6 times in growth medium, and 4 μl droplets of these cell suspensions were applied to the surface of Petri dishes containing solid LB-ampicilin medium containing varying concentrations of vanillin (based on the STV determinations described above), and without or with (to induce gene expression) 1 mM isopropyl thiogalactoside (IPTG). The plates were incubated at 37° C. for 24 hours, after which growth on the various concentrations of vanillin was monitored and recorded.
# [2] = tested on: E. coli strain KO1418 transformants; experiment: as above; assay type: cell-based
# Experimental: as §2
# [3] = tested on: E. coli strain JM109 transformants; experiment: Toxicity of vanillin with constitutive expression of UGT85B1 or AS, growth on plates; assay type: cell-based
# Description: (§3) For experimentation with constitutive expression of UGT85B1 and AS, the E. coli strains JM109, and K01418 were transformed with the constructed plasmids pJH 430, pJH431, pJH432, pJH433, pJH434, pJH435, pJH436, pJH437, pJH438, pJH439, pJH440, and pJH441, and pKOL30 as control, employing standard transformation protocols. Transformants were selected for ampicilin resistance, and two transformants of each E. coli strain with each plasmid were kept for expression experiments. The E. coli transformants were inoculated from plate cultures into 2 ml liquid growth medium (LB medium containing ampicilin at 100 μg/ml), and allowed to grow for 20 hours at 37° C. The precultures were diluted 100 times 10^4 times and 10^6 times in growth medium, and 4 μl droplets of these cell suspensions were applied to the surface of Petri dishes containing solid LB-ampicilin medium containing varying concentrations of vanillin (based on the STV determinations described above). The plates were incubated at 37° C. for 24 hours, after which growth on the various concentrations of vanillin was monitored and recorded.
# [4] = tested on: E. coli strain KO1418 transformants; experiment: as above; assay type: cell-based
# Description: as §3
# microorganisms = settings: Pfeifer et al, 1984; cited from earlier work
compound,measurement,setting,value
"COc1cc(C=O)ccc1O [Vanillin, vanillin]",STV (Sensitivity To Vanillin) level,E. coli strain JM109,0.14 % (w/v)
same,STV (Sensitivity To Vanillin) level,E. coli strain KO1418,0.18 % (w/v)
same,STV (Sensitivity To Vanillin) level,E. coli strain TOP10,0.12 % (w/v)
same,growth,"[1]; JM109 [pJH401], 0.08% vanillin, IPTG induction No",++
same,growth,"[1]; JM109 [pJH401], 0.08% vanillin, IPTG induction Yes",++
same,growth,"[1]; JM109 [pJH401], 0.12% vanillin, IPTG induction No",++
same,growth,"[1]; JM109 [pJH401], 0.12% vanillin, IPTG induction Yes",++
same,growth,"[1]; JM109 [pJH401], 0.16% vanillin, IPTG induction No",−
same,growth,"[1]; JM109 [pJH401], 0.16% vanillin, IPTG induction Yes",−
same,growth,"[1]; JM109 [pJH401], 0.2% vanillin, IPTG induction No",−
same,growth,"[1]; JM109 [pJH401], 0.2% vanillin, IPTG induction Yes",−
same,growth,"[1]; JM109 [pJH402], 0.08% vanillin, IPTG induction No",++
same,growth,"[1]; JM109 [pJH402], 0.08% vanillin, IPTG induction Yes",++
same,growth,"[1]; JM109 [pJH402], 0.12% vanillin, IPTG induction No",++
same,growth,"[1]; JM109 [pJH402], 0.12% vanillin, IPTG induction Yes",++
same,growth,"[1]; JM109 [pJH402], 0.16% vanillin, IPTG induction No",+
same,growth,"[1]; JM109 [pJH402], 0.16% vanillin, IPTG induction Yes",++
same,growth,"[1]; JM109 [pJH402], 0.2% vanillin, IPTG induction No",−
same,growth,"[1]; JM109 [pJH402], 0.2% vanillin, IPTG induction Yes",−
same,growth,"[1]; JM109 [pJH410], 0.08% vanillin, IPTG induction Yes",++
same,growth,"[1]; JM109 [pJH410], 0.12% vanillin, IPTG induction No",++
same,growth,"[1]; JM109 [pJH410], 0.12% vanillin, IPTG induction Yes",++
same,growth,"[1]; JM109 [pJH410], 0.16% vanillin, IPTG induction No",++
same,growth,"[1]; JM109 [pJH410], 0.16% vanillin, IPTG induction Yes",+
same,growth,"[1]; JM109 [pJH410], 0.2% vanillin, IPTG induction Yes",−
same,growth,"[1]; JM109 [pKK223-3], 0.08% vanillin, IPTG induction No",++
same,growth,"[1]; JM109 [pKK223-3], 0.08% vanillin, IPTG induction Yes",++
same,growth,"[1]; JM109 [pKK223-3], 0.12% vanillin, IPTG induction No",++
same,growth,"[1]; JM109 [pKK223-3], 0.12% vanillin, IPTG induction Yes",++
same,growth,"[1]; JM109 [pKK223-3], 0.16% vanillin, IPTG induction No",−
same,growth,"[1]; JM109 [pKK223-3], 0.16% vanillin, IPTG induction Yes",−
same,growth,"[1]; JM109 [pKK223-3], 0.2% vanillin, IPTG induction No",−
same,growth,"[1]; JM109 [pKK223-3], 0.2% vanillin, IPTG induction Yes",−
same,growth,"[2]; KO1418 [pJH401], 0.08% vanillin, IPTG induction No",++
same,growth,"[2]; KO1418 [pJH401], 0.08% vanillin, IPTG induction Yes",++
same,growth,"[2]; KO1418 [pJH401], 0.12% vanillin, IPTG induction No",++
same,growth,"[2]; KO1418 [pJH401], 0.12% vanillin, IPTG induction Yes",++
same,growth,"[2]; KO1418 [pJH401], 0.16% vanillin, IPTG induction No",−
same,growth,"[2]; KO1418 [pJH401], 0.16% vanillin, IPTG induction Yes",++
same,growth,"[2]; KO1418 [pJH401], 0.2% vanillin, IPTG induction No",−
same,growth,"[2]; KO1418 [pJH401], 0.2% vanillin, IPTG induction Yes",−
same,growth,"[2]; KO1418 [pJH402], 0.08% vanillin, IPTG induction No",++
same,growth,"[2]; KO1418 [pJH402], 0.08% vanillin, IPTG induction Yes",++
same,growth,"[2]; KO1418 [pJH402], 0.12% vanillin, IPTG induction No",++
same,growth,"[2]; KO1418 [pJH402], 0.12% vanillin, IPTG induction Yes",++
same,growth,"[2]; KO1418 [pJH402], 0.16% vanillin, IPTG induction No",+
same,growth,"[2]; KO1418 [pJH402], 0.16% vanillin, IPTG induction Yes",++
same,growth,"[2]; KO1418 [pJH402], 0.2% vanillin, IPTG induction No",−
same,growth,"[2]; KO1418 [pJH402], 0.2% vanillin, IPTG induction Yes",−
same,growth,"[2]; KO1418 [pJH410], 0.08% vanillin, IPTG induction No",++
same,growth,"[2]; KO1418 [pJH410], 0.12% vanillin, IPTG induction Yes",++
same,growth,"[2]; KO1418 [pJH410], 0.16% vanillin, IPTG induction No",++
same,growth,"[2]; KO1418 [pJH410], 0.16% vanillin, IPTG induction Yes",++
same,growth,"[2]; KO1418 [pJH410], 0.2% vanillin, IPTG induction No",−
same,growth,"[2]; KO1418 [pKK223-3], 0.08% vanillin, IPTG induction No",++
same,growth,"[2]; KO1418 [pKK223-3], 0.08% vanillin, IPTG induction Yes",++
same,growth,"[2]; KO1418 [pKK223-3], 0.12% vanillin, IPTG induction No",++
same,growth,"[2]; KO1418 [pKK223-3], 0.12% vanillin, IPTG induction Yes",++
same,growth,"[2]; KO1418 [pKK223-3], 0.16% vanillin, IPTG induction No",−
same,growth,"[2]; KO1418 [pKK223-3], 0.16% vanillin, IPTG induction Yes",++
same,growth,"[2]; KO1418 [pKK223-3], 0.2% vanillin, IPTG induction No",−
same,growth,"[2]; KO1418 [pKK223-3], 0.2% vanillin, IPTG induction Yes",−
same,growth,"[3]; JM109 [pJH430], 0.08% vanillin",+++
same,growth,"[3]; JM109 [pJH430], 0.12% vanillin",+++
same,growth,"[3]; JM109 [pJH430], 0.16% vanillin",++
same,growth,"[3]; JM109 [pJH431], 0.08% vanillin",+++
same,growth,"[3]; JM109 [pJH431], 0.12% vanillin",+++
same,growth,"[3]; JM109 [pJH431], 0.16% vanillin",++
same,growth,"[3]; JM109 [pJH432], 0.08% vanillin",+++
same,growth,"[3]; JM109 [pJH432], 0.12% vanillin",+++
same,growth,"[3]; JM109 [pJH432], 0.16% vanillin",+
same,growth,"[3]; JM109 [pJH433], 0.08% vanillin",+++
same,growth,"[3]; JM109 [pJH433], 0.12% vanillin",+++
same,growth,"[3]; JM109 [pJH433], 0.16% vanillin",+
same,growth,"[3]; JM109 [pKOL30], 0.08% vanillin",+++
same,growth,"[3]; JM109 [pKOL30], 0.12% vanillin",++
same,growth,"[3]; JM109 [pKOL30], 0.16% vanillin",−
same,growth,"[4]; KO1418 [pJH430], 0.08% vanillin",+++
same,growth,"[4]; KO1418 [pJH430], 0.12% vanillin",+++
same,growth,"[4]; KO1418 [pJH430], 0.16% vanillin",+++
same,growth,"[4]; KO1418 [pJH431], 0.08% vanillin",+++
same,growth,"[4]; KO1418 [pJH431], 0.12% vanillin",+++
same,growth,"[4]; KO1418 [pJH431], 0.16% vanillin",+++
same,growth,"[4]; KO1418 [pJH432], 0.08% vanillin",+++
same,growth,"[4]; KO1418 [pJH432], 0.12% vanillin",+++
same,growth,"[4]; KO1418 [pJH432], 0.16% vanillin",+
same,growth,"[4]; KO1418 [pJH433], 0.08% vanillin",+++
same,growth,"[4]; KO1418 [pJH433], 0.12% vanillin",+++
same,growth,"[4]; KO1418 [pJH433], 0.16% vanillin",+++
same,growth,"[4]; KO1418 [pKOL30], 0.08% vanillin",+++
same,growth,"[4]; KO1418 [pKOL30], 0.12% vanillin",++
same,growth,"[4]; KO1418 [pKOL30], 0.16% vanillin",+
same,concentration in the medium at which it acts as a strong growth inhibitor,microorganisms,5 g/L
